Literature values in US20250000878A1 (priority 2014, published 2025).

How the values were obtained:
[1] = tested on: beta amyloid; conditions: AD transgenic mice
[2] = in vivo
[3] = tested on: elderly men and women
[4] = tested on: patients with possible or probable AD; conditions: 0.1-0.2 mg twice daily, active group
[5] = tested on: patients with mild to moderate VaD; conditions: 100 mcg twice daily for 12 weeks
[6] = 0.2 mg pure huperzine A orally

## Cn1c(=O)c2c(ncn2C)n(C)c1=O [Caffeine]
[1]
  reduction of beta amyloid deposition, entorhinal cortex: 46%
  reduction of beta amyloid deposition, hippocampus: 40%
[2]
  half life: 4 to 6 h
  time to peak blood levels: within one hour

## C[C@]12CC[C@H](O)CC1=CC[C@@H]1[C@@H]2CC[C@]2(C)C(=O)CC[C@@H]12 [DHEA, dehydroepiandrosterone]
[3]; 50 mg per day, one year
  insulin resistance: significant improvement
[3]; 50 mg per day, one year, mean age 70 years
  reduction of visceral fat measured by MRI: about 10%
[3]; vs placebo controls
  circulating cytokines TNF alpha and IL-6: significant decrease

## C/C=C1\[C@H]2C=C(C)C[C@]1(N)c1ccc(=O)[nH]c1C2 [Huperzine A]
[4]
  proportion of patients with a four point improvement on the ADAS-cog: 56%
[5]
  cognitive function: significantly improved
[6]
  terminal half life: approximately 6 hours
